Source: patent US20250195521A1 (Revolution Medicines, Inc., priority 2020, published 2025)
pEC50, pIC50: −log10 of the molar value. Like-named read-outs stand apart in the source and are kept apart here.

Assays:
KRAS Q61H = KRAS Q61H (Homo sapiens (Human), UniProt P01116+P62937, Q61H); assay: Ras-Raf disruption/FRET/MOA assay (BRAF RBD, Cyclophilin A); assay type: biochemical
Outline: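 His6-K-Ras-GMPPNP (12.5 nM), GST-BRAF RBD (50 nM) and tagless Cyclophilin A (25 μM) were combined in 25 mM HEPES pH 7.3 with 100 mM NaCl, 5 mM MgCl2, 0.1% BSA and 0.002% Tween20, with compound as a 10-point 3-fold series from 30 μM final, then incubated 3 h at 25° C.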

NRAS Q61K = NRAS Q61K (Homo sapiens (Human), UniProt P01111+P62937, Q61K); assay: as above; assay type: biochemical
Outline: (§1)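 Ras-GMPPNP (12.5 nM), BRAF RBD (50 nM) and 25 μM Cyclophilin A were incubated with compound for 3 h at 25° C, then detected 1.5 h with anti-His Eu and anti-GST APC; IC50 values follow from the reduced TR-FRET ratio.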

NRAS WT = NRAS WT (Homo sapiens (Human), UniProt P01111+P62937); assay: as above; assay type: biochemical
Outline: as §1

[1] = test system: K-Ras G12C (NCI-H358 cells); assay: Potency assay: pERK in NCI-H358 cells; assay type: cell-based, human; conditions: Homo sapiens, read-out: pERK EC50 (H358 KRAS G12C)
Outline: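 Cells plated the day before were exposed for 4 h at 37° C, 5% CO2 to a 10-point, 3-fold DMSO dilution series (10 mM top stock), in duplicate. Phospho-ERK was read by AlphaLISA SureFire Ultra or by In-Cell Western with DRAQ5 DNA stain, and IC50 came from a 4-parameter sigmoidal fit.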

[2] = biological target: KRAS G12S binding to BRAF RBD (Homo sapiens (Human), UniProt P01116+P62937, G12S); assay: Ras-Raf disruption/FRET/MOA assay, KRAS G12S; assay type: biochemical
Outline: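 TR-FRET ratio drop relative to DMSO wells marks disruption of the Ras–RAF complex, reported as IC50. Compounds promote a Ras(nucleotide)–cyclophilin A ternary complex that blocks BRAF RBD binding; dosing was 10 points, 3-fold, top 30 μM final, 3 h at 25° C before detection.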

NRAS Q61R = NRAS Q61R (Homo sapiens (Human), UniProt P01111+P62937, Q61R); assay: Ras-Raf disruption/FRET/MOA assay (BRAF RBD, Cyclophilin A); assay type: biochemical
Outline: as §1

NRAS Q61K, sequence (P01111 whole entry Q61K): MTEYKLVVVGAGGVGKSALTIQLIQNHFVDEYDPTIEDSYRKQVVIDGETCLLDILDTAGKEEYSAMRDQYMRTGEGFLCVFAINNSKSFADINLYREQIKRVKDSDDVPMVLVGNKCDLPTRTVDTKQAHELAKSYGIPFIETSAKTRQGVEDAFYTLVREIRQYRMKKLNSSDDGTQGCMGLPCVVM
NRAS Q61K, sequence (P62937 whole entry): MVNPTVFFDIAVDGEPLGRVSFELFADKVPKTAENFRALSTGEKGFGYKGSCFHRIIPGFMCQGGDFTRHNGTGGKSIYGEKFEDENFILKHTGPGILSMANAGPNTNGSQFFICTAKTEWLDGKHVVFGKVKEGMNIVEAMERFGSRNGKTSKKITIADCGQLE
NRAS Q61R, sequence (P01111 whole entry Q61R): as the sequence (P01111 whole entry Q61K) above, with K61R counted along it
NRAS Q61R, sequence (P62937 whole entry): as the sequence (P62937 whole entry) above
KRAS G12S binding to BRAF RBD, sequence (P01116 other isoform, or with tags, fused parts or gaps G12S): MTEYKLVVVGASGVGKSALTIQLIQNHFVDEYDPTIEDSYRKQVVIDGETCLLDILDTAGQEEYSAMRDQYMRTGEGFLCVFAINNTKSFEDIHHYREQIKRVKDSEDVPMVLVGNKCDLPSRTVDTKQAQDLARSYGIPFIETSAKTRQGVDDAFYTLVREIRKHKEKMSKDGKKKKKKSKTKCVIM
KRAS G12S binding to BRAF RBD, sequence (P62937 whole entry): as the sequence (P62937 whole entry) above
KRAS Q61H, sequence (P01116 other isoform, or with tags, fused parts or gaps Q61H): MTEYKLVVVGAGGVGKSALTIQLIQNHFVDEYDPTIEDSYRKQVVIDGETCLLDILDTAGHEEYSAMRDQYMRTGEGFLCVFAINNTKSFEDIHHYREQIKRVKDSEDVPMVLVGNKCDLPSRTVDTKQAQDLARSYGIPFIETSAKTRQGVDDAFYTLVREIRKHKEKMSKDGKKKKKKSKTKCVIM
KRAS Q61H, sequence (P62937 whole entry): as the sequence (P62937 whole entry) above
NRAS WT, sequence (P01111 whole entry): as the sequence (P01111 whole entry Q61K) above, with K61Q counted along it
NRAS WT, sequence (P62937 whole entry): as the sequence (P62937 whole entry) above

Row | Structure (SMILES) | pIC50 (KRAS Q61H) | pIC50 (NRAS Q61K) | pIC50 (NRAS WT) | pEC50 ([1]; NCI-H358 cells, 4 hours) | pIC50 [2] | pIC50 (NRAS Q61R) | pEC50 ([1]; NCI-H358, 4 h)
1 | CCn1c(-c2cccnc2[C@H](C)OC)c2c3cc(ccc31)-c1cc(O)cc(c1)C[C@H](NC(=O)C1CCC3C1C3(F)F)C(=O)N1CCC[C@H](N1)C(=O)OCC(C)(C)C2 (stereo partly drawn) [Compound A181] | 6.00 to 7.00 | 5.00 to 6.00 | 5.00 to 6.00 | > 5.30 | 7.00 to 8.00 | – | –
2 | CCn1c(-c2cnccc2COC)c2c3cc(ccc31)-c1cc(O)cc(c1)C[C@H](NC(=O)[C@H](C(C)C)N(C)C(=O)N1CCNCC1)C(=O)N1CCC[C@H](N1)C(=O)OCC(C)(C)C2 [Compound A255] | – | – | – | > 5.30 | 7.00 to 8.00 | – | –
3 | CCn1c(-c2cccnc2[C@H](C)OC)c2c3cc(ccc31)-c1cc(O)cc(c1)C[C@H](NC(=O)[C@@H](C(C)C)N(C)C(C)=O)C(=O)N1CCC[C@H](N1)C(=O)OCC(C)(C)C2 [Compound A256] | – | – | – | > 5.30 | 7.00 to 8.00 | – | –
4 | CCn1c(-c2cccnc2[C@H](C)OC)c2c3cc(ccc31)-c1csc(n1)C[C@H](NC(=O)[C@H](C(C)C)N(C)C(=O)N1C[C@@H](C)N(C)C[C@@H]1C)C(=O)N1CCC[C@H](N1)C(=O)OCC(C)(C)C2 [Compound A292] | – | – | – | > 5.30 | 7.00 to 8.00 | – | –
5 | CCn1c(-c2cccnc2[C@H](C)OC)c2c3cc(ccc31)-c1csc(n1)C[C@H](NC(=O)[C@H](C(C)C)N(C)C(=O)N1CC(N3CCC3)C1)C(=O)N1CCC[C@H](N1)C(=O)OCC(C)(C)C2 [Compound A295] | – | – | – | > 5.30 | 7.00 to 8.00 | – | –
6 | CCn1c(-c2cccnc2[C@H](C)OC)c2c3cc(ccc31)-c1csc(n1)C[C@H](NC(=O)[C@H](C(C)C)N(C)C(=O)N1C[C@H](C)N(C)C[C@H]1C)C(=O)N1CCC[C@H](N1)C(=O)OCC(C)(C)C2 [Compound A300] | – | – | – | > 5.30 | 7.00 to 8.00 | – | –
7 | CCn1c(-c2cccnc2[C@H](C)OC)c2c3cc(ccc31)-c1csc(n1)C[C@H](NC(=O)[C@H](C(C)C)N(C)C(=O)N1CC(N3CCOCC3)C1)C(=O)N1CCC[C@H](N1)C(=O)OCC(C)(C)C2 [Compound A338] | – | – | – | > 5.30 | 7.00 to 8.00 | – | –
8 | CCn1c(-c2cccnc2[C@H](C)OC)c2c3cc(ccc31)-c1csc(n1)C[C@H](NC(=O)C1CC1)C(=O)N1CCC[C@H](N1)C(=O)OCC(C)(C)C2 [Compound A367] | 6.00 to 7.00 | 6.00 to 7.00 | 6.00 to 7.00 | > 5.30 | 7.00 to 8.00 | 5.00 to 6.00 | –
9 | CCn1c(-c2cccnc2[C@H](C)OC)c2c3cc(ccc31)-c1csc(n1)C[C@H](NC(=O)[C@H](C(C)C)N(C)C(=O)N1CC[C@]3(CCNC3=O)C1)C(=O)N1CCC[C@H](N1)C(=O)OCC(C)(C)C2 [Compound A479] | 6.00 to 7.00 | 6.00 to 7.00 | 6.00 to 7.00 | > 5.30 | 7.00 to 8.00 | 5.00 to 6.00 | –
10 | CCn1c(-c2cccnc2[C@H](C)OC)c2c3cc(ccc31)-c1csc(n1)C[C@H](NC(=O)[C@H](C(C)C)N(C)C(=O)N1CCC[C@H](N(C)C)CC1)C(=O)N1CCC[C@H](N1)C(=O)OCC(C)(C)C2 [Compound A493] | 7.00 to 8.00 | – | 7.00 to 8.00 | > 5.30 | 7.00 to 8.00 | 6.00 to 7.00 | –
11 | CCn1c(-c2cccnc2[C@H](C)OC)c2c3cc(ccc31)-c1csc(n1)C[C@H](NC(=O)[C@H](C(C)C)N(C)C(=O)N(C)C1(C)COC1)C(=O)N1CCC[C@H](N1)C(=O)OCC(C)(C)C2 [Compound A527] | 6.00 to 7.00 | 6.00 to 7.00 | 6.00 to 7.00 | > 5.30 | 7.00 to 8.00 | 6.00 to 7.00 | –
12 | CCn1c(-c2cccnc2[C@H](C)OC)c2c3cc(ccc31)-c1csc(n1)C[C@H](NC(=O)[C@H](C(C)C)N(C)C(=O)N1CCN3C(=O)CN(C)C[C@H]3C1)C(=O)N1CCC[C@H](N1)C(=O)OCC(C)(C)C2 [Compound A537] | 7.00 to 8.00 | – | 7.00 to 8.00 | > 5.30 | 7.00 to 8.00 | 6.00 to 7.00 | –
13 | CCn1c(-c2cccnc2[C@H](C)OC)c2c3cc(ccc31)-c1csc(n1)C[C@H](NC(=O)[C@H](C(C)C)N(C)C(=O)N1CCN(C(=O)[C@@H]3CCCN3C)CC1)C(=O)N1CCC[C@H](N1)C(=O)OCC(C)(C)C2 [Compound A596] | 7.00 to 8.00 | – | 7.00 to 8.00 | > 5.30 | 7.00 to 8.00 | 6.00 to 7.00 | –
14 | CCn1c(-c2cccnc2[C@H](C)OC)c2c3cc(ccc31)-c1csc(n1)[C@@H](OC)[C@H](NC(=O)[C@H](C(C)C)N(C)C(=O)N(C)C)C(=O)N1CCC[C@H](N1)C(=O)OCC(C)(C)C2 [Compound A598, (2S)—N-((6^3S,3S,4S,Z)-1^1-ethyl-3-methoxy-1^2-(2-((S)-1-methoxyethyl)pyridin-3-yl)-10,10-dimethyl-5,7-dioxo-6^1,6^2,6^3,6^4,6^5,6^6-hexahydro-1^1H-8-oxa-2 (4,2)-thiazola-1 (5,3)-indola-6 (1,3)-pyridazinacycloundecaphane-4-yl)-3-methyl-2-(1,3,3-trimethylureido) butanamide] | 6.00 to 7.00 | – | 6.00 to 7.00 | – | 7.00 to 8.00 | 6.00 to 7.00 | > 5.30
15 | CCn1c(-c2cccnc2[C@H](C)OC)c2c3cc(ccc31)-c1csc(n1)C[C@H](NC(=O)[C@H](C(C)C)N(C)C(=O)N1CC3(CCN(C)C3)C1)C(=O)N1CCC[C@H](N1)C(=O)OCC(C)(C)C2 [Compound A602] | 6.00 to 7.00 | 6.00 to 7.00 | 6.00 to 7.00 | > 5.30 | 7.00 to 8.00 | 6.00 to 7.00 | –
16 | CCn1c(-c2cccnc2[C@H](C)OC)c2c3cc(ccc31)-c1cc(O)cc(c1)C[C@H](NC(=O)[C@H](C(C)C)N(C)C(=O)[C@]1(F)CCN(C(=O)OC)C1)C(=O)N1CCC[C@H](N1)C(=O)OCC(C)(C)C2 [Compound A616] | 7.00 to 8.00 | 6.00 to 7.00 | 6.00 to 7.00 | > 5.30 | – | 6.00 to 7.00 | –
